Laboratory results reported in patent US20080193938A1, “Materials And Methods Relating To Breast Cancer Classification” (priority 2005, published 2008).

Legend:
MCF-7 cells = assay: Tamoxifen induced apoptosis, Annexin-V flow cytometry in control and RLN2 silenced MCF-7 cells; assay type: cell-based; details: 1 μM tamoxifen for 48 hrs, analyzed 72 hrs after withdrawal
Experimental: FIG. 13B. Flow cytometric analysis of Tamoxifen sensitivity in RLN2 silenced MCF-7 cells: RLN2 silenced and control cells were treated with 1 μm Tamoxifen or equivalent quantity of vehicle for 48 hrs and subsequently, the treatment was withdrawn. After 72 hrs, Annexin-V staining positive cells were scored in Flow cytometry, which is a measure for tamoxifen induced apoptosis.
MCF-7 cells (ATCC) were maintained in DMEM growth media supplemented with 10% fetal bovine serum (FBS), 100 U/mL penicillin, 100 U/mL streptomycin, and 2 mM L-glutamine. […] RLN2 silenced and control cells were treated with 1 μM Tamoxifen or equivalent quantity of vehicle for 48 hrs and subsequently, the treatment was withdrawn by changing the culture media to DMEM with 5% DCC. After 72 hrs, cells were trypsinized and stained with Annexin-V-Fluorescein and propidium iodide as recommended by the manufacturer (Roche) and the analyzed in Flow cytometer (Beckman-Coulter). The population of annexin-V positive cells was scored as the representation of the percentages of apoptotic cells.
To functionally investigate the association of the TuM1 signature with a tumor's response to anti-hormonal treatment, the role of a representative TuM1 gene, Relaxin2 (RLN2) was assessed in a ER+ breast cancer cellular model. […]

TuM1 module = assay: Gene set enrichment analysis of tumor module expression in tamoxifen treated MCF7 cells; assay type: cell-based; details: 10 μM tamoxifen, harvested at 48 hrs; FDR=0.05
Experimental: MCF-7 breast cancer cells were obtained from American Type Culture Collection center (Manassas, Va.), and cells were cultured in Dulbecco's modified Eagle medium (DMEM) (Gibco, Grand Island, N.Y.) supplemented with 10% fetal bovine serum (FBS), 100 U/mL penicillin, 100 U/mL streptomycin, and 2 mM L-glutamine. Before tamoxifen treatment, cells were washed three times in PBS and maintained in phenol red free DMEM with 5% Dextran charcoal-stripped FBS (HyClone Laboratories, Pittsburgh, Pa.) for 24 hrs. Subsequently cells were treated with 10 μM tamoxifen (Sigma) and harvested at 48 hrs. Control sister cultures were treated with an equivalent volume of the vehicle (0.1% ethanol).
GSEA was used to ask if expression of the tumor module genes might be affected by tamoxifen treatment. Four control samples and two post-treatment samples (See Materials and Methods) were used for GSEA analysis. Three modules (TuM4, 5 and 6) were filtered out due to insufficient number of genes (<10) expressed in MCF7 cell lines.
The observation that TuM1 is expressed in a subset of ER+ tumors raises the possibility that expression of this module may depend, at least in some part, on ER activity and signaling. To investigate the relationship between TuM1 expression and ER signaling, we tested the responsiveness of TuM1 to ER activity using an in vitro system. […]

Question: For `CC/C(=C(\c1ccccc1)c1ccc(OCCN(C)C)cc1)c1ccccc1` [tamoxifen], which “percentage of apoptotic (annexin-V-staining positive) cells” value (MCF-7 cells; RLN2 silenced (siRNA) MCF-7 cells) is on record?
Answer: The value was “about 23%”.

Question: And the “percentage of apoptotic (annexin-V-staining positive) cells” value (MCF-7 cells; control MCF-7 cells)?
Answer: Its value is “about 73%”.

Question: What about the “TuM1 expression in tam-treated MCF7 cells compared to controls (GSEA)” value (TuM1 module) of the same compound?
Answer: The value was “significantly downregulated”.
